Measurements taken from patent US20220250063A1, “ASSAY SYSTEM, METHODS, AND MULTI-WELL PLATE FOR GAS STIMULATION OF BIOLOGICAL CELLS, PROTEINS OR MATERIALS” (Koniku Inc., priority 2021, published 2022).

Test system: odorant receptor of the modified cells
Assay: Gas stimulation of modified cells expressing different odorant receptors in a 96 well microplate, fluorescence recorded by camera
Assay type: cell-based
Conditions: sample as gas in the gas channel of 96 well microplate 80; for fluorescent response of the responding wells: different ORs in different wells, responding wells (81A: one well; 81C: four wells; 81E: two wells); for fluorescent response of all of the other wells: remaining dark wells (81B: 95 wells; 81D: 92 wells; 81F: 94 wells)
Excerpt: In a representative example of operation, an empty microplate is placed in the hatch 120 by a technician or automatically using a microplate loader/unloader. The microplate is moved to the disk support, with the wells aligned with the pipettes. The pipetting head holding the pipettes is lowered to position the tips of the pipettes in or near the wells. The pipettes deposit liquid containing cells into the wells. Inlet and outlet gas nozzles or fittings engage the gas channel inlet and outlet in the microplate. In some embodiments, there are more than one inlets and outlets that correspond to the number of channels and number of samples injected. Gas containing a VOC or other candidate molecule or compound sample is injected through the gas channel of the microplate. This may be done manually or via automation.
If the VOC or other candidate molecule or compound in the sample binds and activates the odorant receptor expressed by the cells, a signal is emitted (e.g., emission of fluorescent or luminescent light). The signal is detected by the camera 128 via the optical unit 126. The computer 138 analyzes and records the location (i.e., the well number or position), the intensity, time duration, color, and/or other parameters of the fluorescent light, along with data on the VOC or other candidate molecule or compound momentarily passing through the microplate. The computer 138 may calculate the mean of the pixels for each well in each of the images.
FIG. 14 is an image as recorded by the camera 128 with a sample of benzaldehyde provided into the gas channel of a 96 well microplate 80.
The microplate 80 shown in FIGS. 14-16 has different cells in different wells. As shown, the odorant receptors of different cells bind to different compounds. In each well of the 96 well microplate 80, the cells expressed the same OR. Different ORs were provided into different wells. […] This allows determination of which ORs may best detect menthol. It may also allow for genetically fine tuning the receptors.

SMILES | fluorescent response of the responding wells | fluorescent response of all of the other wells
CC1CCC(C(C)C)C(O)C1 (stereo not drawn) [menthol] | strong fluorescent responses | no fluorescent response
CCCCCc1ccco1 [2-pentylfuran] | strong fluorescent responses | no fluorescent response
O=Cc1ccccc1 [benzaldehyde] | strongly fluorescing | not at all
